Legend:
Experiment in all cases: relative viability (nuclei count vs DMSO), 5 days (fraction); higher = more cells survive
Avagacestat + Tozasertib = compound: NC(=O)[C@@H](CCC(F)(F)F)N(Cc1ccc(-c2ncon2)cc1F)S(=O)(=O)c1ccc(Cl)cc1 [Avagacestat] + Cc1cc(Nc2cc(N3CCN(C)CC3)nc(Sc3ccc(NC(=O)C4CC4)cc3)n2)n[nH]1 [Tozasertib] (partner 0.1 µM)
Method in brief: (§1)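 Relative viability divides the nuclei count in treated wells by that in vehicle wells. Lung cancer cell lines were seeded in 1536-well plates, dosed by pin tool the next day, and fixed and stained after 5 days in one step with final 0.05% Triton X-100, 1% formaldehyde and 1 ug/ml Hoechst. Dosing was a single drug or a fixed anchor-drug dose plus five library-drug doses (not always all listed) in √10 steps, and values are medians of duplicate plates imaged at 4×.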

Avagacestat + AZD7762 = compound: NC(=O)[C@@H](CCC(F)(F)F)N(Cc1ccc(-c2ncon2)cc1F)S(=O)(=O)c1ccc(Cl)cc1 [Avagacestat] + NC(=O)Nc1cc(-c2cccc(F)c2)sc1C(=O)N[C@H]1CCCNC1 [AZD7762] (partner 0.2 µM)
Method in brief: as §1

Avagacestat + Trametinib = compound: NC(=O)[C@@H](CCC(F)(F)F)N(Cc1ccc(-c2ncon2)cc1F)S(=O)(=O)c1ccc(Cl)cc1 [Avagacestat] + CC(=O)Nc1cccc(-n2c(=O)n(C3CC3)c(=O)c3c(Nc4ccc(I)cc4F)n(C)c(=O)c(C)c32)c1 [Trametinib] (partner 0.02 µM)
Method in brief: as §1

Avagacestat = compound: NC(=O)[C@@H](CCC(F)(F)F)N(Cc1ccc(-c2ncon2)cc1F)S(=O)(=O)c1ccc(Cl)cc1 [Avagacestat]
Method in brief: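 Viability was defined as treated-well nuclei divided by vehicle-well nuclei, with the median taken over replicate plates. Cells from lung cancer lines sat overnight at 37 °C in 1536-well plates, received five √10-spaced library-drug doses by pinning on vehicle-anchored plates, and grew 5 days without medium change before one-step fixation, permeabilisation and Hoechst staining, 4× imaging and MetaXpress nuclear counts. Only plates with control CV under 25% and at least one doubling were kept.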

Cell Line	relative viability (Avagacestat + Tozasertib; first compound 0.253 µM)	relative viability (Avagacestat + Tozasertib; first compound 0.8 µM)	relative viability (Avagacestat + Tozasertib; first compound 2.53 µM)	relative viability (Avagacestat + Tozasertib; first compound 8 µM)	relative viability (Avagacestat + AZD7762; first compound 0.08 µM)	relative viability (Avagacestat + AZD7762; first compound 0.253 µM)	relative viability (Avagacestat + AZD7762; first compound 0.8 µM)	relative viability (Avagacestat + AZD7762; first compound 2.53 µM)	relative viability (Avagacestat + AZD7762; first compound 8 µM)	relative viability (Avagacestat + Trametinib; first compound 0.08 µM)	relative viability (Avagacestat + Trametinib; first compound 0.253 µM)	relative viability (Avagacestat + Trametinib; first compound 0.8 µM)	relative viability (Avagacestat + Trametinib; first compound 2.53 µM)	relative viability (Avagacestat + Trametinib; first compound 8 µM)	relative viability (Avagacestat; 0.08 µM)	relative viability (Avagacestat; 0.253 µM)	relative viability (Avagacestat; 0.8 µM)	relative viability (Avagacestat; 2.53 µM)	relative viability (Avagacestat; 8 µM)	relative viability (Avagacestat + Tozasertib; first compound 0.08 µM)
NCI-H647	0.319	0.199	0.263	0.0556	0.634	0.484	0.565	0.516	0.292	0.475	0.502	0.463	0.396	0.384	0.992	1.07	1.13	0.922	0.899	–
NCI-H838	0.286	0.269	0.276	0.269	0.988	0.971	0.997	0.857	0.861	0.534	0.607	0.559	0.442	0.495	1.03	1.11	1.05	0.894	0.935	0.277
NCI-H1355	0.534	0.593	0.454	0.392	0.98	0.777	0.809	0.654	0.699	0.449	0.393	0.447	0.386	0.366	1.07	1.2	1.03	0.876	0.874	0.523
LK-2	0.147	0.185	0.183	0.172	0.408	0.384	0.41	0.4	0.291	1.02	0.917	0.651	–	0.747	1.28	1.22	0.784	0.604	0.874	0.188
PC-3 [JPC-3]	0.99	1.08	0.943	0.826	0.983	0.972	1.19	0.842	0.775	0.763	0.754	0.816	0.742	0.714	1.2	1.08	1.25	1.05	1.02	1.01
NCI-H2170	0.782	0.812	0.72	0.646	0.968	1.14	0.928	0.793	0.877	1	1.17	1	0.867	0.881	1.08	1.18	0.994	0.938	0.932	0.807
NCI-H1648	0.464	0.371	0.296	0.298	0.603	0.564	0.548	0.46	0.48	0.443	0.426	0.36	0.318	0.32	0.583	0.705	0.513	0.55	0.457	0.374
LCLC-97TM1	0.206	0.208	0.183	0.181	0.165	0.397	0.205	0.264	0.272	0.241	0.251	0.266	0.174	0.22	1.08	1.09	1.2	1	0.829	0.221
BEN	0.504	0.526	0.449	0.49	0.706	0.676	0.744	0.79	0.644	1.1	1.18	1.05	0.917	1.13	1.13	1.02	1.06	0.959	0.917	0.512
LCLC-103H	0.55	0.512	0.391	0.449	0.815	0.759	0.837	0.68	0.688	0.721	0.726	0.772	0.567	0.61	0.994	0.928	0.921	0.929	0.941	0.58
NCI-H1651	0.862	0.719	0.609	0.585	0.531	0.538	0.561	0.441	0.36	0.884	0.93	0.838	0.842	0.813	1.08	1.09	1.13	0.98	0.922	0.955
SW 900	0.637	0.578	0.487	0.353	0.847	0.807	0.606	0.571	0.466	1.08	0.82	0.872	0.763	0.713	1.07	1.04	1.06	0.967	0.979	0.726
NCI-H1975	0.945	0.928	0.603	0.367	0.718	0.712	0.853	0.649	0.642	0.305	0.361	0.429	0.33	0.361	1.02	1.21	1.15	0.943	0.967	1.01
NCI-H650	0.973	0.761	0.65	0.702	1.06	0.963	1.19	1.09	0.822	1.02	1.06	0.988	1	1.06	1.02	0.966	1.05	1.16	0.872	0.872
LC-2-ad	0.384	0.427	0.197	0.367	0.947	0.927	0.843	0.761	0.616	0.99	0.965	0.962	0.911	0.856	1.02	0.985	1.11	1.03	0.96	0.453
HCC-78	0.473	0.208	0.396	0.377	0.61	0.615	0.665	0.461	0.529	0.878	0.933	0.888	0.789	0.726	1.07	1.01	1.18	0.801	0.915	0.404

Cell Line	relative viability (Avagacestat + Tozasertib; first compound 0.253 µM)	relative viability (Avagacestat + Tozasertib; first compound 0.8 µM)	relative viability (Avagacestat + Tozasertib; first compound 2.53 µM)	relative viability (Avagacestat + Tozasertib; first compound 8 µM)	relative viability (Avagacestat + AZD7762; first compound 0.08 µM)	relative viability (Avagacestat + AZD7762; first compound 0.253 µM)	relative viability (Avagacestat + AZD7762; first compound 0.8 µM)	relative viability (Avagacestat + AZD7762; first compound 2.53 µM)	relative viability (Avagacestat + AZD7762; first compound 8 µM)	relative viability (Avagacestat + Trametinib; first compound 0.08 µM)	relative viability (Avagacestat + Trametinib; first compound 0.253 µM)	relative viability (Avagacestat + Trametinib; first compound 0.8 µM)	relative viability (Avagacestat + Trametinib; first compound 2.53 µM)	relative viability (Avagacestat + Trametinib; first compound 8 µM)	relative viability (Avagacestat; 0.08 µM)	relative viability (Avagacestat; 0.253 µM)	relative viability (Avagacestat; 0.8 µM)	relative viability (Avagacestat; 2.53 µM)	relative viability (Avagacestat; 8 µM)	relative viability (Avagacestat + Tozasertib; first compound 0.08 µM)
RERF-LC-KJ	0.471	0.466	0.418	0.379	1.02	1.14	1.24	0.929	0.751	0.917	0.853	0.89	0.81	0.84	1.07	1.1	1.04	0.945	0.856	0.5
NCI-H358	0.0996	0.102	0.101	0.107	0.516	0.595	0.57	0.481	0.461	0.14	0.114	0.129	0.127	0.119	1.02	1	1.03	0.835	0.835	0.106
NCI-H1437	0.457	0.41	0.377	0.307	1.16	1.15	1.02	1.09	0.906	0.518	0.668	0.575	0.398	0.436	1.09	0.997	1.1	0.915	0.877	0.416
HOP-62	0.353	0.373	0.363	0.335	0.811	0.714	0.62	0.53	0.47	0.381	0.372	0.4	0.323	0.304	1.15	1.17	1.03	0.991	0.895	0.357
HARA	0.0986	0.0937	0.0995	0.145	0.303	0.276	0.332	0.24	0.184	0.704	0.764	0.757	0.536	0.647	0.891	1.17	1.06	0.963	0.989	0.0944
HCC-44	1.27	0.976	0.146	0.755	0.923	1.04	1.03	1.01	1.18	1.05	1.02	1.05	0.98	1.03	0.999	0.999	0.997	0.968	0.935	1.03
NCI-H441	0.715	0.529	0.683	0.483	1.02	1.23	1.37	1.35	0.877	0.52	0.462	0.449	0.515	0.411	1.32	1.61	1.09	1.24	0.794	0.968
NCI-H2405	0.751	0.747	0.714	0.661	0.895	0.839	0.73	0.701	0.754	0.687	0.69	0.548	0.508	0.554	1.01	0.99	1.08	0.956	0.97	0.718
NCI-H1993	0.594	0.529	0.541	0.539	0.956	0.61	0.741	0.731	0.6	0.576	0.316	0.629	0.504	0.577	1.16	1.09	1.34	0.93	1.01	0.604
NCI-H460	0.651	0.492	0.156	0.155	0.768	0.87	0.863	0.682	0.608	0.223	0.143	0.13	0.112	0.1	1.09	1.31	1.03	0.942	0.951	0.616
NCI-H522	0.593	0.579	0.517	0.479	0.768	0.82	0.807	0.843	0.985	0.748	0.74	0.734	0.72	0.795	0.922	1.04	0.969	1.12	0.938	0.559
A-427	0.185	0.206	0.198	0.198	0.752	0.753	0.703	0.619	0.68	0.84	0.898	0.71	0.694	0.742	1.12	1.12	1.17	1.07	1.08	0.203
LOU-NH91	0.63	0.648	0.609	0.624	0.828	0.838	0.864	0.673	0.736	0.877	0.801	0.839	0.765	0.765	1.05	0.881	1.14	0.917	0.968	0.621
HCC-15	0.461	0.434	0.337	0.167	1.21	1.22	1.3	1.16	1.38	0.395	0.44	0.391	0.394	0.374	1.17	1.19	1.13	1	0.946	0.404
HCC-366	0.172	0.0909	0.0683	0.0694	0.268	0.272	0.328	0.235	0.176	0.446	0.547	0.346	0.297	0.27	1.04	1.17	1.07	1.11	1.11	0.0969
